In patent publication US20230348447A1, “OXAZOLIDINONE COMPOUNDS, LIPOSOME COMPOSITIONS COMPRISING OXAZOLIDINONE COMPOUNDS AND METHOD OF USE THEREOF” (priority 2020, published 2023):
Values after ≈ are worked out from the molar mass of the structure shown. Read-outs that look alike come from different tables or passages of the source.

Tests used:
[1] = tested on: MRSA strain MW-2 (USA 400); assay: Rabbit left-sided aortic valve endocarditis model of MRSA; assay type: in vivo, Staphylococcus aureus (in New Zealand white rabbits); details: for Kidneys, MRSA count / Liver, MRSA count / Lungs, MRSA count / Spleen, MRSA count / Vegetations, MRSA count: rabbits, DAP 2 mg/kg daily for four days alone
[2] = tested on: M.tb H37Rv; assay: Broth microdilution MIC with Alamar blue endpoint (MABA) / OD600; assay type: cell-based, Mycobacterium tuberculosis
[3] = tested on: human hepatocyte/liver (HepG2; ATCC #HB8065) cells; assay: In vitro cytotoxicity (PrestoBlue cell viability), HepG2; assay type: cell-based
[4] = tested on: M. Tuberculosis Erdman or H37Rv vs VERO or HepG2 cells; assay: Selectivity Index (mammalian cell IC50 / bacterial MIC); parameters: species or system Mycobacterium tuberculosis
[5] = tested on: MRSA ATCC 43300; assay: MIC against methicillin resistant Staphylococcus aureus (MRSA); details: read-out: MRSA MIC, ATCC 43300
[6] = tested on: M.tb Erdman; assay: Broth microdilution MIC with Alamar blue endpoint (MABA) / OD600; assay type: cell-based, Mycobacterium tuberculosis
[7] = tested on: MRSA 880 NR-49120; assay: MIC against methicillin resistant Staphylococcus aureus (MRSA); details: read-out: MRSA MIC, 880 NR-49120
[8] = tested on: African green monkey kidney (Vero; ATCC # CCL81) cells; assay: In vitro cytotoxicity (PrestoBlue cell viability), Vero; assay type: cell-based
[9] = tested on: mitochondrial protein synthesis (COX-1/SDH-A ratio) in H9C2 rat heart myoblast cells; assay: Mitochondrial protein synthesis inhibition (MitoBiogenesis in-cell ELISA, COX-1/SDH-A); assay type: cell-based; details: 120 h, five days, read-out: MPS IC50
[10] = tested on: MRSA ATCC BAA-1556; assay: MIC against methicillin resistant Staphylococcus aureus (MRSA)
[11] = Liposome loading / encapsulation efficiency (General protocol); details: for Maximum encapsulated drug payload: 0.5 M AS
[12] = Mycobacterium tuberculosis, H37RV; as determined in Example 2; read-out: MIC (H37Rv)
[13] = Mycobacterium tuberculosis, H37RV; read-out: Mycobacterium tuberculosis MIC, H37Rv
[14] = Homo sapiens, HepG2, 72 h; read-out: Cell viability IC50, HepG2
[15] = Mycobacterium tuberculosis, ERDMAN; read-out: Mycobacterium tuberculosis MIC, Erdman
[16] = Chlorocebus sabaeus, Vero, 72 h; read-out: Cell viability IC50, VERO
[17] = read-out: MRSA MIC, ATCC BAA-1556
[18] = Mycobacterium tuberculosis, H37RV, read-out: Mycobacterium tuberculosis MIC, H37Rv
[19] = Homo sapiens, HepG2, 72 h, read-out: Cell viability IC50, HepG2
[20] = Mycobacterium tuberculosis, ERDMAN, read-out: Mycobacterium tuberculosis MIC, Erdman
[21] = Chlorocebus sabaeus, Vero, 72 h, read-out: Cell viability IC50, VERO

For `CCCCCCCCCC(=O)N[C@@H](Cc1c[nH]c2ccccc12)C(=O)N[C@H](CC(N)=O)C(=O)N[C@@H](CC(=O)O)C(=O)N[C@@H]1C(=O)NCC(=O)N[C@@H](CCCN)C(=O)N[C@@H](CC(=O)O)C(=O)N[C@H](C)C(=O)N[C@@H](CC(=O)O)C(=O)NCC(=O)N[C@H](CO)C(=O)N[C@@H]([C@H](C)CC(=O)O)C(=O)N[C@@H](CC(=O)c2ccccc2N)C(=O)O[C@@H]1C` [Daptomycin], the “efficacy on day 6 post inoculation” value ([1]; DAP 2 mg/kg daily x4 alone or plus a single dose of Ls-AKG38 40 mg/kg) was “no significant efficacy”, the “Kidneys, MRSA count” value ([1]; (relapse)) was 8.11 ± 0.49 log10 cfu/gm of tissue and the “Liver, MRSA count” value ([1]; (relapse)) was 7.65 ± 0.26 log10 cfu/gm of tissue. For the same compound, the “Lungs, MRSA count” value ([1]; (relapse)) was 8.00 ± 0.66 log10 cfu/gm of tissue, the “Spleen, MRSA count” value ([1]; (relapse)) was 7.91 ± 0.54 log10 cfu/gm of tissue and the “Vegetations, MRSA count” value ([1]; (relapse)) was 9.18 ± 0.22 log10 cfu/gm of tissue. For the same compound, the “Kidneys, MRSA count” value ([1]; day 6) was 6.90 ± 0.61 log10 cfu/gm of tissue, the “Liver, MRSA count” value ([1]; day 6) was 6.77 ± 0.90 log10 cfu/gm of tissue and the “Lungs, MRSA count” value ([1]; day 6) was 6.37 ± 0.64 log10 cfu/gm of tissue. For the same compound, the “Spleen, MRSA count” value ([1]; day 6) was 7.43 ± 0.38 log10 cfu/gm of tissue and the “Vegetations, MRSA count” value ([1]; day 6) was 8.13 ± 0.17 log10 cfu/gm of tissue.
In the case of `Cl.NCCn1nnnc1-c1ccc(-c2ccc(N3C[C@H](CO)OC3=O)cc2F)cn1` [AKG-22], the MIC [2, 12] is reported as 0.5 µg/mL, the MIC [2, 13] is reported as 0.5 µg/mL and the IC50 [3, 14] is reported as 17.2 µg/mL. The “Selectivity Index (SI) Erd/HepG2” value [4] was 17.2, the “Selectivity Index (SI) Erd/VERO” value [4] was 57.7 and the MIC [5] was 16.7 µg/mL. The MIC [6, 15] was 1 µg/mL, the MIC [7] was 5.55 µg/mL and the IC50 [8, 16] was 57.7 µg/mL. For the same compound, the IC50 [9] was 1.18 µg/mL and the MIC [10, 17] was 1.85 to 5.55 µg/mL.
For `CN(C)CCCn1nnc(-c2ccc(-c3ccc(N4C[C@H](CN)OC4=O)cc3F)cn2)n1` [AKG-30], the MIC [2, 18] was 0.125 µg/mL (≈ 0.284 µM), the IC50 [3, 19] was 18.9 µg/mL (≈ 42.9 µM) and the “Selectivity Index (SI) Erd/HepG2” value [4] was 151.2. For the same compound, the “Selectivity Index (SI) Erd/VERO” value [4] was 884.0, the MIC [5] was > 50 µg/mL and the MIC [6, 20] was 0.125 µg/mL (≈ 0.284 µM). The MIC [7] was > 50 µg/mL, the IC50 [8, 21] was 110 µg/mL (≈ 251 µM) and the MIC ([10]; read-out: MRSA MIC) was > 50 µg/mL. The MIC [10, 17] was > 50 µg/mL.
With `CCN(CC)CCCn1nnc(-c2ccc(-c3ccc(N4C[C@H](CNC(C)=O)OC4=O)cc3F)cn2)n1` [AKG-40] the “Mycobacterium tuberculosis MIC, H37Rv” value [2] was 0.5 µg/mL, the MIC [2, 12] was 0.5 µg/mL (≈ 0.979 µM) and the MIC [2, 13] was 0.5 µg/mL (≈ 0.979 µM). For the same compound, the IC50 [3, 14] was 113 µg/mL (≈ 221 µM), the “Selectivity Index (SI) Erd/HepG2” value [4] was 113.0 and the “Selectivity Index (SI) Erd/VERO” value [4] was >250.0. For the same compound, the MIC [5] was 5.55 µg/mL (≈ 10.9 µM), the “Mycobacterium tuberculosis MIC, Erdman” value [6] was 1 to 2 µg/mL and the MIC [6, 15] was 1 µg/mL (≈ 1.96 µM). The MIC [7] was 1.85 µg/mL (≈ 3.62 µM), the IC50 [8, 16] was > 250 µg/mL and the IC50 [9] was 0.064 µg/mL (≈ 0.125 µM). It also gave an MIC [10, 17] of 1.85 µg/mL (≈ 3.62 µM).
In the case of `Cl.Cn1nnc(-c2ccc(-c3ccc(N4C[C@H](CN)OC4=O)cc3F)cn2)n1` [AKG-3], the “Maximum encapsulated drug payload” value ([11]; 0.5 mol% PEG) is reported as 590 g/mol PhL, the “Maximum encapsulated drug payload” value ([11]; 5 mol% PEG) is reported as 600-606 g/mol PhL and the “loading efficiency at or near the maximum drug load” value ([11]; 1 N TEA-SOS, DL0 750-1500 g/mol PhL) is reported as “at least 97.6%”. The maximum drug load ([11]; 1 N TEA-SOS, DL0 750-1500 g/mol PhL, no buffer) was 900-930 g/mol PhL, the Drug loading efficiency ([11]; PEG-DSG 0.5 mol%, 1 N TEA-SOS, DL0 500 g/mol PhL) was 100.8 and the Drug loading efficiency ([11]; PEG-DSG 0.5 mol%, […] AS, DL0 250 g/mol PhL) was 100.4. The Drug loading efficiency ([11]; PEG-DSG 0.5 mol%, […] AS, DL0 500 g/mol PhL) was 80.3, the Drug loading efficiency ([11]; PEG-DSG 5 mol%, 1 N TEA-SOS, DL0 500 g/mol PhL) was 107.4 and the MIC ([2]; Mycobacterium tuberculosis, H37RV, read-out: MIC (H37Rv)) was 0.06 µg/mL. For the same compound, the MIC [2, 18] was 0.06 µg/mL, the IC50 [3, 19] was 21.2 µg/mL and the “Selectivity Index (SI) Erd/HepG2” value [4] was 169.6. For the same compound, the “Selectivity Index (SI) Erd/VERO” value [4] was 142.4, the MIC [5] was 50 µg/mL and the MIC [6, 20] was 0.125 µg/mL. It also gave an MIC [7] of 50 µg/mL, an IC50 [8, 21] of 17.8 µg/mL and an IC50 [9] of 0.115 µg/mL. The MIC ([10]; read-out: MRSA MIC) was > 50 µg/mL and the MIC [10, 17] was 50 µg/mL.
